Activity calls are given as the source filed them.
What was measured:
[1] = inhibitors of firefly luciferase expression or activity, dose response, H4 neuroglioma cells, luminescence (AID 1990); format: functional, cell-based
Bcl-2-related protein A1 [2] = molecular target: T1, Bcl-2-related protein A1 (Mus musculus, UniProt Q07440); test: Bfl-1 inhibitors, primary screen, biochemical, fluorescence polarization, FITC-Bid, mouse (AID 432)
T1 sequence (Q07440 whole entry): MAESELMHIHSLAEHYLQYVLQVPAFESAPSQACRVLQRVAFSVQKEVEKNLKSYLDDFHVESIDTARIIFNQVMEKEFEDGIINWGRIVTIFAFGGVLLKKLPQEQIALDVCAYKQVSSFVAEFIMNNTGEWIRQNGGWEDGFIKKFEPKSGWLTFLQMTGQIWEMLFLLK

[3] = Luminescence Cell-Based Dose Response HTS to Identify Inhibitors of 5'UTR Stem-Loop Driven Prion Protein mRNA Translation in H4 Neuroglioblastoma Cells. [Related pubchem assays: 1827 (Project Summary), 1813 (Primary HTS)]; format: functional
[4] = inhibitors of SNCA 5'UTR-driven reporter translation, confirmation, H4 neuroglioma cells, luminescence (AID 1988); format: functional, cell-based
[5] = inhibitors of intracellular T. cruzi replication, confirmation, NIH3T3 host cells, beta-gal luminescence (AID 2044); format: functional, cell-based;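 further: intracellular parasites grown in NIH/3T3 mouse fibroblasts as host cells; luminescent beta-galactosidase reporter signal from transgenic T. cruzi replicating inside host cells; inhibitors lower the luminescence signal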
Bcl-2-related protein A1 [6] = molecular target: T1, Bcl-2-related protein A1; test: Bfl-1 inhibitors blocking BH3 peptide binding, confirmation, biochemical, TR-FRET, mouse Bfl-1 (AID 621);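 further: TR-FRET binding of GST-Bfl-1 to FITC-labelled Bid peptide via terbium antibody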
[7] = cytotoxicity toward NIH3T3 fibroblasts, dose response, counter-screen, cell-based, ATP luminescence, mouse fibroblasts (AID 2010); format: functional;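 further: cells exposed to compound for about 90 hours before reading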
Nonstructural protein 1 = Nonstructural protein 1 (Influenza A virus, UniProt Q194T2); format: functional, Influenza A virus (A/California/07/2009(H1N1))
Nonstructural protein 1, sequence (Q194T2 whole entry): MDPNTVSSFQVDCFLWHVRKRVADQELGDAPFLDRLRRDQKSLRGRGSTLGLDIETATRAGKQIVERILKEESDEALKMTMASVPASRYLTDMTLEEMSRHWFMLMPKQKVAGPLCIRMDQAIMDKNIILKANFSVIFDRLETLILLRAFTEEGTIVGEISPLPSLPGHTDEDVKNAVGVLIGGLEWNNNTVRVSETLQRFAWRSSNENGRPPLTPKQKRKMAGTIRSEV

INS1 = test: beta cell apoptosis inhibitors, cytokine rescue, dose response, luminescence, retest (AID 449756); format: functional, cell-based; details: Rattus norvegicus;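 further: cell death triggered by IL-1 beta plus TNF-alpha plus IFN-gamma mixture; protective hits raise ATP signal compared with cytokine alone wells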
[8] = Luminescence Cell-Based Dose Response HTS to Identify Activators of Luciferase Translation or Activity in H4 […] Cells. [Related pubchem assays: 1829 (Project Summary), 1814 (Primary HTS)]; format: functional
H4 = test: Luminescence Cell-Based Dose Response HTS to Identify Activators of 5'UTR Stem-Loop Driven Prion Protein mRNA Translation in H4 Neuroglioblastoma Cells. [Related pubchem assays: 1829 (Project Summary), 1814 (Primary HTS)]; format: functional; details: Homo sapiens
[9] = cytotoxicity in HPDE-C7 cells, cell-based, fluorescence, HTS (AID 430); format: functional; details: Homo sapiens
[10] = cytotoxicity in KRAS-transformed pancreatic duct cells, primary screen, cell-based, fluorescence, HTS (AID 431); format: functional; details: Homo sapiens;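 further: cell line used: HPDE-C7K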
14-3-3 protein gamma = 14-3-3 protein gamma (Homo sapiens, UniProt P61981); test: modulators of 14-3-3 gamma client binding – dose response (AID 711); format: functional
14-3-3 protein gamma, sequence (P61981 whole entry): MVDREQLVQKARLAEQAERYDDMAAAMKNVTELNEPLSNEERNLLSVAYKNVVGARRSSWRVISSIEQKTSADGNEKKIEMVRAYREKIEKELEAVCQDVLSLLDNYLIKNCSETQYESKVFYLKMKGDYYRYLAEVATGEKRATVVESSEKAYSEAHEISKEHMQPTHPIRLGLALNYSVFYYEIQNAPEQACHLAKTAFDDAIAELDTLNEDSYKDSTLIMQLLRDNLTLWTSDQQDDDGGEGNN

[11] = Luminescent dose response cell-based high throughput screening assay for inhibitors of the Janus kinase 2 mutant JAK2V617F. [Related pubchem assays: 1446 (Primary screen.), 1521 (Confirmation assay.), 1486 (Counter screen.)]; format: functional
Vero = test: cells; format: functional; details: Chlorocebus sabaeus
Paired box protein Pax-8 = Paired box protein Pax-8 (Homo sapiens, UniProt Q06710); test: inhibitors of PAX8-driven TPO luciferase reporter, dose response, RMG-I cells, cherry-pick (AID 687027); format: functional, cell-based;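 further: luciferase reporter driven by Pax8 target thyroperoxidase promoter measured by SteadyGlo luminescence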
Paired box protein Pax-8, sequence (Q06710 whole entry): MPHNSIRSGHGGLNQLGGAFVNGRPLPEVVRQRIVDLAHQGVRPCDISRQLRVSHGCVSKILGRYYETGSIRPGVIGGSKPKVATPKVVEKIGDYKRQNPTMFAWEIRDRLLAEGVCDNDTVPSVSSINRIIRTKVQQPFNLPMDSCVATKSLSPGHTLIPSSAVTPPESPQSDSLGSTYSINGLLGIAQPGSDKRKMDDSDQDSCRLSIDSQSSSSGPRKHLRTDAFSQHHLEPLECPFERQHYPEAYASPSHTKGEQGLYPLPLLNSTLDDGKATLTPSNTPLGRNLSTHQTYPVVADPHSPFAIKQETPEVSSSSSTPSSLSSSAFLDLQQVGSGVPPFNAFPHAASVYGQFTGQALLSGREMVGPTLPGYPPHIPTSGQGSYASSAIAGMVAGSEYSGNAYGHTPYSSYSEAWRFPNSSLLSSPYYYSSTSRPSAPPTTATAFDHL

[12] = molecular target: G-protein coupled receptor 55 (Homo sapiens, UniProt Q9Y2T6); test: GPR55 antagonists blocking LPI-driven arrestin recruitment, primary screen, imaging, U2OS, beta-arrestin-GFP, LPI agonist (AID 2013); format: functional;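 further: antagonist potency measured as reduced agonist-driven arrestin aggregation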
G-protein coupled receptor 55, sequence (Q9Y2T6 whole entry): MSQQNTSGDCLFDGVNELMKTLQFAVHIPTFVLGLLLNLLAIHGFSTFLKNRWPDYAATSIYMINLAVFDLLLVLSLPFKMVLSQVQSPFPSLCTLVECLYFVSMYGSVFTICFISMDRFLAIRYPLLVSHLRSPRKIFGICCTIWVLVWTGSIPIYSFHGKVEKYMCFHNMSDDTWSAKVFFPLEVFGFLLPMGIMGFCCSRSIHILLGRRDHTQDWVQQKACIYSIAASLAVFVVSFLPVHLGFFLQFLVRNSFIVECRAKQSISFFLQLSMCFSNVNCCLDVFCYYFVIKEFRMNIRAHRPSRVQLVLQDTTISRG

[13] = microbe, parasite or virus in culture; format: functional; details: Mycobacterium tuberculosis
[14] = Luminescence-based dose response cell-based high throughput screening assay for cytotoxic compounds using the IEC-6 intestinal epithelial cell line. [Related pubchem assays: 1858 (Summary AID.), 1825 (Counterscreen.), 1907 (Confirmation screen.)]; format: functional
[15] = THP-1 cell cytotoxicity, dose response, cytotoxicity control for non-replicating M. tuberculosis project (AID 489025); format: functional
[16] = HepG2 cell cytotoxicity, dose response, cytotoxicity control for non-replicating M. tuberculosis project (AID 489018); format: functional; details: Mycobacterium tuberculosis
[17] = Vero E6 cell cytotoxicity, dose response, cytotoxicity control for non-replicating M. tuberculosis project, secondary assay (AID 492998); format: functional, VeroE6; details: Vero C1008
cells = format: functional
[18] = Fluorescence-based cell-based high throughput dose response assay for inhibitors of the interaction of nucleotide-binding oligomerization domain containing 2 (NOD2) and the receptor-interacting serine-threonine kinase 2 (RIPK2).; format: functional; details: Homo sapiens
[19] = molecular target: Photoreceptor-specific nuclear receptor (Homo sapiens, UniProt Q9Y5X4); format: functional, cell-based;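 further: CHO-S cells with Gal4-NCOR and VP16-NR2E3 two-hybrid luciferase reporter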
Photoreceptor-specific nuclear receptor, sequence (Q9Y5X4 whole entry, the tested form may be a part): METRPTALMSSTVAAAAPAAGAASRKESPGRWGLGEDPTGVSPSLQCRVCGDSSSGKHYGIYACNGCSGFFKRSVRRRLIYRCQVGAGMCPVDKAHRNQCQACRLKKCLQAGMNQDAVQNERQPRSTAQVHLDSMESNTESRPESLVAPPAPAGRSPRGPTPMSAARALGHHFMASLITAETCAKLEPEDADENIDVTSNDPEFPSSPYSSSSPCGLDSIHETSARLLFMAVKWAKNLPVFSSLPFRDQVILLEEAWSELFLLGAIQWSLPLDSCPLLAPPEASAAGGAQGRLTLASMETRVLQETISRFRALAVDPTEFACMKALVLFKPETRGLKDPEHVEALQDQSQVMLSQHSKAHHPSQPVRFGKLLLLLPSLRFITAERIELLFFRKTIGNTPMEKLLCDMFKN

[20] = HeLa cell cytotoxicity, dose response, cytotoxicity control for MgcRacGAP inhibitor project (AID 624300); format: functional
[21] = molecular target: T2, Rac GTPase-activating protein 1 (Homo sapiens, UniProt Q9H0H5); test: MgcRacGAP GTPase-activating activity inhibitors, confirmation, biochemical, ADP Hunter fluorescence, primary and confirmatory (AID 624330); format: functional
T2 sequence (Q9H0H5 whole entry): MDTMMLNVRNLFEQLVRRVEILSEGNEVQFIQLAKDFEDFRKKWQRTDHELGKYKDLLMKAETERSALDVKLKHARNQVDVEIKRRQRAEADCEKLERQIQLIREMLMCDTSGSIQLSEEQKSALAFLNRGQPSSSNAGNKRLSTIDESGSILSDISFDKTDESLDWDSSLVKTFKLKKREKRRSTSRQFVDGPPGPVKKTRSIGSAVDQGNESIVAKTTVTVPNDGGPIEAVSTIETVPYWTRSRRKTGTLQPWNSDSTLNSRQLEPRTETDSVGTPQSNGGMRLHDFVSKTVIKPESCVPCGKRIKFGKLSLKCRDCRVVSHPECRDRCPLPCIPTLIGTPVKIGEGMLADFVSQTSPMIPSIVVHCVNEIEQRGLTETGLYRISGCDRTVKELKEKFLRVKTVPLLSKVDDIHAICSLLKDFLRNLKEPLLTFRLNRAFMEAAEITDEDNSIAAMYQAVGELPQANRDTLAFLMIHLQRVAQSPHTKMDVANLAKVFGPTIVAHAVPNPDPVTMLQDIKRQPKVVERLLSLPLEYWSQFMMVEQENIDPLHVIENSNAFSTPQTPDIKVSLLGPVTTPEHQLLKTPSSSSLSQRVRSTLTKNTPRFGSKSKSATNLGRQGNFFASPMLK

[22] = molecular target: Protein-tyrosine kinase 2-beta (Homo sapiens, UniProt Q14289);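 further: potency of inhibitors of PYK2 kinase phosphorylation of poly-GT substrate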
Protein-tyrosine kinase 2-beta, sequence (Q14289 whole entry): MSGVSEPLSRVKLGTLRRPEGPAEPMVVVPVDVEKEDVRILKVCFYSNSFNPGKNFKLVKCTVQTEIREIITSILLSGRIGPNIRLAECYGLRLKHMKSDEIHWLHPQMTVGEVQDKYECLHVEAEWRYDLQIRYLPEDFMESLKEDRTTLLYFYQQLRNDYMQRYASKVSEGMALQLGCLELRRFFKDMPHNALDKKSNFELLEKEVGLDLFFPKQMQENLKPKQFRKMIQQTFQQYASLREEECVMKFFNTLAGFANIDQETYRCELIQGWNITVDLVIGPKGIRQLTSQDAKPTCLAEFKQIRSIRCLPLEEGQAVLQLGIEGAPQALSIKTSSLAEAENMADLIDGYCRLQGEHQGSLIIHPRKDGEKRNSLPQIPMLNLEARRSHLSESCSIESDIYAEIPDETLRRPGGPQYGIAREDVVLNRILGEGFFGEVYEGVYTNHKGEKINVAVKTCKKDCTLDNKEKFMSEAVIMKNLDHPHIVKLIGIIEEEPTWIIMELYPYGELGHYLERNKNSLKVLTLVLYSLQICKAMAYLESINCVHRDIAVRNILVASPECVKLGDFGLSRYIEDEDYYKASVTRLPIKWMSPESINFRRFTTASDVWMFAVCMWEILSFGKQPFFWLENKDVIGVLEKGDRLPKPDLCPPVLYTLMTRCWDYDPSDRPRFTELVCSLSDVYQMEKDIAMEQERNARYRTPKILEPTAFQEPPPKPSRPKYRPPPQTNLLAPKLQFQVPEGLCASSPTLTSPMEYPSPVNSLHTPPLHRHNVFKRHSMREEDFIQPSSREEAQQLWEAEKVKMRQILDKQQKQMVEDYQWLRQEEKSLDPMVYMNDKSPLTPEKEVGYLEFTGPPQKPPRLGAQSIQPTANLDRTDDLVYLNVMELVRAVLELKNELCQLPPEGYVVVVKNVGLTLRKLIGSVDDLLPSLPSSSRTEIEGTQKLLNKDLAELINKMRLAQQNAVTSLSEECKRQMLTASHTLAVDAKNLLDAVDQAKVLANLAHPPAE

[23] = molecular target: Mitogen-activated protein kinase 10 (Homo sapiens, UniProt P53779); test: Dose response biochemical screening assay for inhibitors of c-Jun N-Terminal Kinase 3 (JNK3). [Related pubchem assays: 746 ]
Mitogen-activated protein kinase 10, sequence (P53779 whole entry): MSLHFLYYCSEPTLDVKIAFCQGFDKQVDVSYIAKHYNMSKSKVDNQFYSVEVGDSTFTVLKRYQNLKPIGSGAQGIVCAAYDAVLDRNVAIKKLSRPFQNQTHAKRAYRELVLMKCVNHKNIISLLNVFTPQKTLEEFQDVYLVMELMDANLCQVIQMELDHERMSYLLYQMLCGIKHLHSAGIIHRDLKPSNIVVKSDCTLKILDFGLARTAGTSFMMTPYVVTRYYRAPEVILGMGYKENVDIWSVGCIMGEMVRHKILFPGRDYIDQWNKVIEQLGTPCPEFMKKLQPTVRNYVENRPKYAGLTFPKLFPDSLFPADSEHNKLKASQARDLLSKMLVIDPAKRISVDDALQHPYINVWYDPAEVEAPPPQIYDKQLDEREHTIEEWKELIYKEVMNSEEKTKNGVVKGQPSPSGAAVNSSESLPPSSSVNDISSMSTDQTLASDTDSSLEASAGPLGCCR

[24] = molecular target: T3, Short transient receptor potential channel 4 (Mus musculus, UniProt Q9QUQ5); test: mouse TRPC4 channel inhibitors, dose response, cell-based, HEK293 TRPC4/mu-opioid, Fluo-4 calcium (AID 434942); format: functional;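 further: potency of inhibitors blocking the TRPC4 calcium response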
T3 sequence (Q9QUQ5 whole entry): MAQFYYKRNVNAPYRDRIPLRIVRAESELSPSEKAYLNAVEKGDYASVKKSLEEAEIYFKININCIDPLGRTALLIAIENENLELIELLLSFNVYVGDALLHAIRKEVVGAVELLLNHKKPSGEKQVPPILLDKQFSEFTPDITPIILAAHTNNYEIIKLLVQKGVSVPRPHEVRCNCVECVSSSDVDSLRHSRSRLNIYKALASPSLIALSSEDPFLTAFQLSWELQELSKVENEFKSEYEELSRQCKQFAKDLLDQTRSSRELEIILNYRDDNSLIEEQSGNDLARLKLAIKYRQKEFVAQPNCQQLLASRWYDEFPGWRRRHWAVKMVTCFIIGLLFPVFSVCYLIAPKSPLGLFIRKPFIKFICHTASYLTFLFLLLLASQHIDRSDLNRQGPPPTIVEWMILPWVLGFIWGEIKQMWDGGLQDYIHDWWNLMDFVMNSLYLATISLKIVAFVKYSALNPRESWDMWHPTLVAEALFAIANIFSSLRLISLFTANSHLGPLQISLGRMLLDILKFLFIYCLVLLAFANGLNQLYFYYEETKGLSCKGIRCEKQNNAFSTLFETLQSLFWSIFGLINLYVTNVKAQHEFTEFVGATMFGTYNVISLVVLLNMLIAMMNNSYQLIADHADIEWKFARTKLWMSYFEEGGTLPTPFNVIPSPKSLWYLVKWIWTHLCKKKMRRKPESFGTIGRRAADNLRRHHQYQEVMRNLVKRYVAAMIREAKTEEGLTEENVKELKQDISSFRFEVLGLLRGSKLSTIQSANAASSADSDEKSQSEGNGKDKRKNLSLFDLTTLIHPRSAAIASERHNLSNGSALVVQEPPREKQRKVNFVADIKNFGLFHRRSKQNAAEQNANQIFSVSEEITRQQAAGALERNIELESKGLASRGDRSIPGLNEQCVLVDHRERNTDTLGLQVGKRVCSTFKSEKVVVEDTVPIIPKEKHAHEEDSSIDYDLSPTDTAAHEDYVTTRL

HEK293 = test: inhibitors of LMP1-driven NF-kB reporter, dose response, cell-based, HEK293, luciferase, cherry-pick (AID 588343); format: functional; details: Homo sapiens
[25] = molecular target: Dual specificity tyrosine-phosphorylation-regulated kinase 1A (Rattus norvegicus, UniProt Q63470); format: biochemical, Homo sapiens

## Nc1ccc(N2CCCCC2)cc1N1CCCCC1
[1]
  EC50: > 120 µM (not active)
Bcl-2-related protein A1 [2]
  IC50: > 100 µM (not active)
[3]
  EC50: > 120 µM (not active)
[4]
  EC50: > 120 µM (not active)
[5]
  EC50: 0.197 µM (active)
Bcl-2-related protein A1 [6]
  IC50: > 100 µM (not active)
[7]
  EC50: > 60 µM (not active)
Nonstructural protein 1
  IC50: 16.1 µM (active)
INS1
  AC50: 12.9 µM (active)

## Cc1csc(NC(=O)CSc2nsc(SCC(=O)Nc3nc(C)cs3)c2C#N)n1
[8]
  EC50: 1.86 µM (active)
H4
  EC50: > 120 µM (not active)
[9]
  EC50: 12.4 µM (active)
[10]
  EC50: 11 µM (active)
14-3-3 protein gamma
  IC50: > 50 µM (not active)

## Cc1nc2ccccc2c(O)c1C(=O)/C=C/c1ccccc1
[11]
  IC50: 1.71 µM (active)
Vero
  CC50: 7.78 µM (active)
Paired box protein Pax-8
  AC50: 6.93 µM (active)

## CN1C2CCC1/C(=C/c1ccccn1)C(=O)/C2=C\c1ccccn1
[12]
  IC50: 3.25 µM (active)
[13]
  CC50: 1.69 µM (active)
[14]
  IC50: 1.76 µM (active)
[15]
  CC50: 0.894 µM (active)
[16]
  CC50: 1.49 µM (active)
[17]
  CC50: 1.06 µM (active)
cells
  IC50: 7.83 µM (active)
INS1
  AC50: 1.59 µM (active)
[18]
  IC50: 2.58 µM (active)
[19]
  IC50: 1.73 µM (active)
[20]
  CC50: 12.5 µM (active)
[21]
  IC50: 62.5 µM (active)
Paired box protein Pax-8
  AC50: 0.852 µM (active)

## COC(=O)c1cccc2c1-c1ccccc1/C2=N/O
[22]
  IC50: 6.71 µM (active)
[23]
  IC50: 8.81 µM (active)
[24]
  EC50: 2.99 µM (active)
HEK293
  AC50: 28 µM (active)
[25]
  AC50: 0.434 µM (active)
